Measurements taken from patent US10189803B2, “Synthesis of therapeutic and diagnostic drugs centered on regioselective and stereoselective ring opening of aziridinium ions” (ILLINOIS INSTITUTE OF TECHNOLOGY, priority 2008, dated 2019).
Where two headings read alike, the source gives them in different places.

Key:
[1] = T1 relaxivity of Gd(III) complexes (Bruker mq60 NMR analyzer); format: physicochemical; settings: aqueous Gd(III) complexes; for T1 relaxivity: pH 7, 59.97 MHz, 37° C.
Protocol: Gd(NE3TA) and Gd(NE3TA-Bn) were synthesized by reacting GdCl3 with NE3TA and NE3TA-Bn, respectively. NE3TA or NE3TA-Bn were mixed with GdCl3 in a molar ratio of 1 to 0.9, and the resulting mixture at pH 7 was heated to 90° C. and stirred until no free Gd(III) ions were detected using an ArsenazoIII (AAIII) assay. Relaxivity of the aqueous […] complexes (pH 7) was measured on a Bruker MQ60 NMR analyzer, and the concentration of the Gd(III) complexes was measured by ICP-MS. […] NE3TA was successfully conjugated with the most common bile acid, cholic acid (FIG. 41).
(§1) Relaxivity Measurements. Relaxivity measurements were acquired by taking the slope of a plot of 1/T1 (s^−1) versus concentration (mM). The longitudinal water proton relaxation times (T1) were determined using a Bruker mq60 NMR (Bruker Canada, Milton, ON, Canada) analyzer operating at 59.97 MHz and 37° C. The agent was added to Millipore water and serially diluted by 0.5 to give a series of 5 concentrations (500 μL total volume) for each relaxivity trial. The T1 was determined using an inversion recovery pulse sequence with 10 different pulse separations per sample, 4 repetitions per echo time, phase cycling, and a recycle delay that is ≥5 times the T1 of each given sample. All curves were fit using a monoexponential curve fitting formula.
Relaxivity of the aqueous Gd(III) complexes (˜pH 7) were measured on a Bruker MQ60 NMR analyzer, and the concentration of the Gd(III) complexes were measured by ICP-MS. […] As mentioned above, the on and off binding to Gd(III) of one of the pendant coordinates would have resulted enhanced relaxivity of Gd(C-NETA) compared to Gd(C-DOTA). Among the evaluated Gd(III) complexes, Gd(C-NE3TA) gives the highest T1 relaxivity at 60 MHz, probably due to increase in q. The relaxation rates for the Gd(III) chelates are dominated by the inner-sphere dipolar coupling between the coordinated water molecule and the paramagnetic Gd(III). The measured relaxivities arise from the exchange between the coordinated water molecule and the surrounding water molecules in solution. […] No indication of Gd(III) dissociation is evident from the relaxivity data, which is in agreement with the in vitro serum stability and in vivo biodistribution studies.
as §1, with “The T1 relaxivity was determined” for “The T1 was determined”

[2] = cited from earlier work

SMILES: O=C(O)CNCCN1CCN(CC(=O)O)CCN(CC(=O)O)CC1.[Gd] [Gd(NE3TA)]
- T1 relaxivity [1]: 3.94 mM⁻¹ s⁻¹

SMILES: O=C(O)CN1CCN(CCN(CC(=O)O)CC(=O)O)CCN(CC(=O)O)CC1.[177Lu] [^177Lu-NETA]
- organ uptake and blood clearance (in words) ([2]; in vivo): very low organ uptake and rapid blood clearance

SMILES: O=C([O-])CN1CCN(CCN(CC(=O)[O-])CC(=O)[O-])CCN(CC(=O)[O-])CC1.[Bi+3] [^205/6Bi-NETA]
- retention in liver ([2]; 0 h): 5.93±0.78 % ID/g
- retention in liver ([2]; 24 h): 7.31±1.521 % ID/g

SMILES: O=C(O)CNC(Cc1ccc([N+](=O)[O-])cc1)CN1CCN(CC(=O)O)CCN(CC(=O)O)CC1.[Gd] (stereo not drawn) [Gd(C-NE3TA)]
- T1 relaxivity of Gd(III) complexes of bifunctional ligands ([1]; ~pH 7, 60 MHz): 5.89 mM⁻¹ s⁻¹

SMILES: O=C([O-])CN1CCN(CC(=O)[O-])CCN(CC(=O)O)CCN(CC(=O)[O-])CC1.[Gd+3] [Gd(DOTA), reference compound]
- T1 relaxivity [1]: 2.97 mM⁻¹ s⁻¹
